From PubChem BioAssay AID504828 (Johns Hopkins Ion Channel Center, 2011)

molecular target: Inward rectifier potassium channel 2 (Mus musculus) (UniProt P35561); test: inhibition of mouse Kir2.1 inward rectifier channel – manual whole-cell patch clamp, extended SAR, set 1, orthogonal assay, SAR follow-up (AID 504828); settings: Kir2.1-expressing cells, -100 mV
Sequence (P35561 whole entry, looked up): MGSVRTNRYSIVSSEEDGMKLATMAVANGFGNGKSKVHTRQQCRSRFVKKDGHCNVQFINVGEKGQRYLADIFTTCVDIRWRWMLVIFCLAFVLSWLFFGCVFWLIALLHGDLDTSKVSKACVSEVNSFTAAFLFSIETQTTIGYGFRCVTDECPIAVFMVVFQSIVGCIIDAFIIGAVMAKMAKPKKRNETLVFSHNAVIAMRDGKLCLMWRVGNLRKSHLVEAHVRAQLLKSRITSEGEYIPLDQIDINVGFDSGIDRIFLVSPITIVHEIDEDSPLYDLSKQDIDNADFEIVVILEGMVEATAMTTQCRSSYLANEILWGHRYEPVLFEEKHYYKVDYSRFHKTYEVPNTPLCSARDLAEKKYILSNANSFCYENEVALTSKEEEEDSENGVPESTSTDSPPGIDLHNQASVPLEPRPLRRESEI

SMILES | IC50
Cc1ccc2nc(NCc3ccccc3)[nH]c2c1 | 16.6 µM
CC(NS(=O)(=O)c1ccc(Br)cc1)c1ccccc1 (stereo unspecified) | 8.82 µM
Cc1ccc(C)c(OCCCNCc2ccccc2)c1 | 5.94 µM

Now from value to compound:

IC50 | SMILES
11.1 µM | O=S(=O)(c1ccc(F)cc1)N1CCCc2ccccc21
4.12 µM | CC(O)CNCCCOc1cccc(Oc2ccccc2)c1 (stereo unspecified)
3.21 µM | Cc1noc(C)c1COC(=O)CCN1c2ccccc2Sc2ccccc21
